Where only a bound is given, the exact number is not on record here.

The assay concerns the target T1, wild-type menin / MLL-AF9 fusion protein (Homo sapiens, UniProt O00255).
T1 construct: made in house; host or cells: E. coli (menin); HEK293 cleared lysate (MLL-AF9-FLAG)
T1 sequence (O00255 1-610): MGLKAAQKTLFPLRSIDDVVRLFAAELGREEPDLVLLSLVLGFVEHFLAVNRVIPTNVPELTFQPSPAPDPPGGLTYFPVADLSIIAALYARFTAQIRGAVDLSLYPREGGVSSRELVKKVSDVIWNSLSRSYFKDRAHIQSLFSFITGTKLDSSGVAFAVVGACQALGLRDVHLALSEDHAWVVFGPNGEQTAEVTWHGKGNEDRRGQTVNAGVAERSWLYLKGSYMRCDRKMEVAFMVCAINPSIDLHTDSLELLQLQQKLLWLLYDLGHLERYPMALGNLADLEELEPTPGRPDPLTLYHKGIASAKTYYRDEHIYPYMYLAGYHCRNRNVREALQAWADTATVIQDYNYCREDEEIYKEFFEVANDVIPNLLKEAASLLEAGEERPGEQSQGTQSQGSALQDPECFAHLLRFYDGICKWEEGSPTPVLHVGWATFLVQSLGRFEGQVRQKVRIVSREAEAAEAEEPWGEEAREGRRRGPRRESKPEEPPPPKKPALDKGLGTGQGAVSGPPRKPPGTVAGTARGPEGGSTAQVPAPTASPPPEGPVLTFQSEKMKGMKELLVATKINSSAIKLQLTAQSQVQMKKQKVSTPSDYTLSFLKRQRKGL
In words: AlphaLISA menin/MLL binding assay, wild-type menin (Assay 1). The settings on record: biotinylated wild-type menin 5 nM, MLL-AF9-FLAG lysate. The method, then: Potencies of inhibitor compounds against menin/MLL binding were assessed by AlphaLISA assay using biotinylated (1) wild-type menin or (2) mutated menin (described in Nature (2012) Vol. 482, pp. 542-548) and MLL-AF9 fusion protein bearing a FLAG epitope at its C-terminus. Menin proteins were expressed in E. coli and covalently modified with biotin using EZ-Link™ Sulfo-NHS-Biotin (ThermoFisher Cat. No. 21217) according to manufacturer's protocol. MLL1-1,396 fused to AF91-92 and the C-terminal FLAG peptide was expressed in HEK293 cells and used as a lysate cleared at 21,000×g for 10 min.
Compounds (2 μL of solutions in DMSO) were dispensed in white 96-well half-area plates (Corning Cat. No. 3693) and incubated for 30 min at RT with 5 nM biotinylated menin and appropriate amount of MLL-AF9-FLAG lysate in 40 μL of 50 mM Tris-HCl buffer pH 7.4 containing 5% (v/v) DMSO, 50 mM NaCl, 0.01% (w/v) bovine serum albumin (BSA) and 1 mM DTT. To this incubation mixture, 40 μl of AlphaLISA anti-FLAG acceptor (PerkinElmer Cat. No. AL112C) and streptavidin donor (PerkinElmer Cat. No. 6760002) beads (10 μg/mL each) was added and incubation continued at RT for 60 min. Alpha (amplified luminescent proximity homogeneous assay) signal was measured on an Envision multi-label plate reader at the end of the incubation. All steps were conducted under dim fluorescent light.
These percent inhibition values were regressed against compound concentrations in the assay using four parameter logit non-linear curve fitting (XLFit, IDBS). The IC50 values were derived from the curve fitting as inflection points on the dose-response curves and are set out in Table 1 below.
For the compound `Cc1c(CN2CCC3(CC2)CCN(c2ncnc4sc(CC(F)(F)F)cc24)C3)ccc2[nH]c(C#N)cc12` [Example 117, 4-methyl-5-((2-(6-(2,2,2-trifluoroethyl)thieno[2,3-d]pyrimidin-4-yl)-2,8-diazaspiro[4.5]decan-8-yl)methyl)-1H-indole-2-carbonitrile], the IC50 – broadly, the point on the concentration scale where inhibition reaches its midpoint – was not below 1000 nM.

With `O=S(=O)(N[C@H]1CC[C@H](CN2CC3(C2)CN(c2ncnc4sc(CC(F)(F)F)cc24)C3)CC1)C1CC1` [Example 72, N-((1r,4r)-4-((6-(6-(2,2,2-trifluoroethyl)thieno[2,3-d]pyrimidin-4-yl)-2,6-diazaspiro[3.3]heptan-2-yl)methyl)cyclohexyl)cyclopropanesulfonamide], the IC50 was in the range of 100 to 1000 nM.

Regarding `FC(F)(F)Cc1cc2c(N3CCC4(CC3)CN(CC3CC(F)(F)C3)C4)ncnc2s1` [Example 14, 4-(2-((3,3-difluorocyclobutyl)methyl)-2,7-diazaspiro[3.5]nonan-7-yl)-6-(2,2,2-trifluoroethyl)thieno[2,3-d]pyrimidine], the concentration for half-maximal inhibition (IC50) lay in the range of 100 to 1000 nM.

`O=C(C1CCCCN1)N1CCC2(CCN(c3ncnc4sc(CC(F)(F)F)cc34)C2)C1` (stereo not shown) [Example 56, piperidin-2-yl(7-(6-(2,2,2-trifluoroethyl)thieno[2,3-d]pyrimidin-4-yl)-2,7-diazaspiro[4.4]nonan-2-yl)methanone] had an IC50 of 100 to 1000 nM.

In the case of `FC(F)(F)Cc1cc2c(N3CCC4(CC3)CN(CC3CCCOC3)C4)ncnc2s1` (stereo not shown) [Example 7, 4-(2-((tetrahydro-2H-pyran-3-yl)methyl)-2,7-diazaspiro[3.5]nonan-7-yl)-6-(2,2,2-trifluoroethyl)thieno[2,3-d]pyrimidine], the IC50 is not below 1000 nM.

For the compound `CC(C)CN1CCC2(CC1)CCN(c1ncnc3sc(CC(F)(F)F)cc13)C2` [Example 113, 4-(8-isobutyl-2,8-diazaspiro[4.5]decan-2-yl)-6-(2,2,2-trifluoroethyl)thieno[2,3-d]pyrimidine], the IC50 lay within 100 to 1000 nM.

The compound `Cc1c(CN2CC3(C2)CN(c2ncnc4sc(CC(F)(F)F)cc24)C3)ccc2[nH]c(C#N)cc12` [Example 67, 4-methyl-5-((6-(6-(2,2,2-trifluoroethyl)thieno[2,3-d]pyrimidin-4-yl)-2,6-diazaspiro[3.3]heptan-2-yl)methyl)-1H-indole-2-carbonitrile] registered an IC50 of 100 to 1000 nM.

For the compound `CC(=O)N[C@H]1CC[C@H](CN2CCC3(CCN(c4ncnc5sc(CC(F)(F)F)cc45)C3)C2)CC1` (stereo partly shown) [Example 47, N-((1r,4r)-4-((7-(6-(2,2,2-trifluoroethyl)thieno[2,3-d]pyrimidin-4-yl)-2,7-diazaspiro[4.4]nonan-2-yl)methyl)cyclohexyl)acetamide], the IC50 was 100 to 1000 nM.

Compound `CC(C)N1CC2(CCN(c3ncnc4sc(CC(F)(F)F)cc34)CC2)C1` [Example 3, 4-(2-isopropyl-2,7-diazaspiro[3.5]nonan-7-yl)-6-(2,2,2-trifluoroethyl)thieno[2,3-d]pyrimidine] gave an IC50 not below 1000 nM.

Regarding `FC(F)(F)Cc1cc2c(N3CCC4(CCN(C[C@H]5CC[C@H](C(F)(F)F)CC5)C4)C3)ncnc2s1` (stereo partly shown) [Example 37, 6-(2,2,2-Trifluoroethyl)-4-(7-(((1r,4r)-4-(trifluoromethyl)cyclohexyl)methyl)-2,7-diazaspiro[4.4]nonan-2-yl)thieno[2,3-d]pyrimidine], the IC50 was 100 to 1000 nM.

`CS(=O)(=O)c1ccc(CN2CCC3(CCN(c4ncnc5sc(CC(F)(F)F)cc45)C3)C2)c(Cl)c1` (stereo not shown) [Example 36, 4-(7-(2-chloro-4-(methylsulfonyl)benzyl)-2,7-diazaspiro[4.4]nonan-2-yl)-6-(2,2,2-trifluoroethyl)thieno[2,3-d]pyrimidine] gave an IC50 of 100 to 1000 nM.

In the case of `CC(C)(N)CC(=O)N1CC2(CCN(c3ncnc4sc(CC(F)(F)F)cc34)CC2)C1` [Example 17, 3-amino-3-methyl-1-(7-(6-(2,2,2-trifluoroethyl)thieno[2,3-d]pyrimidin-4-yl)-2,7-diazaspiro[3.5]nonan-2-yl)butan-1-one], the IC50 was not below 1000 nM.

Take `FC(F)(F)Cc1cc2c(N3CC4(CN(CC5CCC(F)(F)CC5)C4)C3)ncnc2s1` [Example 70, 4-(6-((4,4-difluorocyclohexyl)methyl)-2,6-diazaspiro[3.3]heptan-2-yl)-6-(2,2,2-trifluoroethyl)thieno[2,3-d]pyrimidine]: the IC50 was in the range of 100 to 1000 nM.

On to `FC(F)(F)Cc1ccc2nccc(N3CCC4(CC3)CN(CC3CC3)C4)c2c1` [Example 87, 4-(2-(cyclopropylmethyl)-2,7-diazaspiro[3.5]nonan-7-yl)-6-(2,2,2-trifluoroethyl)quinoline], for which the IC50 is not below 1000 nM.

Take `CC(C)CN1CC2(CCN(c3ccnc4ccc(CC(F)(F)F)cc34)CC2)C1` [Example 85, 4-(2-isobutyl-2,7-diazaspiro[3.5]nonan-7-yl)-6-(2,2,2-trifluoroethyl)quinoline]: the IC50 is not below 1000 nM.

As to `FC(F)(F)Cc1cc2c(N3CCC4(CC3)CN(C3CCOCC3)C4)ncnc2s1` [Example 8, 4-(2-(tetrahydro-2H-pyran-4-yl)-2,7-diazaspiro[3.5]nonan-7-yl)-6-(2,2,2-trifluoroethyl)thieno[2,3-d]pyrimidine], the IC50 is not below 1000 nM.

For the compound `O=S1(=O)CCC(N2CCC3(CC2)CN(c2ncnc4sc(CC(F)(F)F)cc24)C3)CC1` [Example 104, 4-(2-(6-(2,2,2-trifluoroethyl)thieno[2,3-d]pyrimidin-4-yl)-2,7-diazaspiro[3.5]nonan-7-yl)tetrahydro-2H-thiopyran 1,1-dioxide], the IC50 lay within 100 to 1000 nM.

`FC(F)(F)Cc1cc2c(N3CCC4(CN(Cc5ccccc5)C4)C3)ncnc2s1` [Example 111, 4-(2-benzyl-2,6-diazaspiro[3.4]octan-6-yl)-6-(2,2,2-trifluoroethyl)thieno[2,3-d]pyrimidine]: the IC50 lay within 100 to 1000 nM.

Take `Cc1c(CN2CCC3(CCN(c4ncnc5sc(CC(F)(F)F)cc45)C3)C2)ccc2[nH]c(C#N)cc12` (single isomer, unassigned) [Example 30b, 4-methyl-5-((7-(6-(2,2,2-trifluoroethyl)thieno[2,3-d]pyrimidin-4-yl)-2,7-diazaspiro[4.4]nonan-2-yl)methyl)-1H-indole-2-carbonitrile]: the IC50 is less than 100 nM.

`CC(C)(O)CN1CC2(CCN(c3ncnc4sc(CC(F)(F)F)cc34)CC2)C1` [Example 15, 2-methyl-1-(7-(6-(2,2,2-trifluoroethyl)thieno[2,3-d]pyrimidin-4-yl)-2,7-diazaspiro[3.5]nonan-2-yl)propan-2-ol] yielded an IC50 not below 1000 nM.

`Cc1c(CN2CCC3(CCN(c4ncnc5sc(CC(F)(F)F)nc45)C3)C2)ccc2[nH]c(C#N)cc12` (stereo not shown) [Example 83, 4-methyl-5-((7-(2-(2,2,2-trifluoroethyl)thiazolo[5,4-d]pyrimidin-7-yl)-2,7-diazaspiro[4.4]nonan-2-yl)methyl)-1H-indole-2-carbonitrile]: the 50% inhibitory concentration (IC50) was less than 100 nM.

Consider `Cc1c(CN2CC[C@@]3(CCN(c4ccnc5ccc(CC(F)(F)F)cc45)C3)C2)ccc2[nH]c(C#N)cc12` (single isomer, unassigned) [Example 86b, 4-methyl-5-((7-(6-(2,2,2-trifluoroethyl)quinolin-4-yl)-2,7-diazaspiro[4.4]nonan-2-yl)methyl)-1H-indole-2-carbonitrile], for which the IC50 fell in the range of 100 to 1000 nM.

On to `FC(F)(F)Cc1cc2c(N3CCC4(CCN(CC5CCOC5)C4)C3)ncnc2s1` (stereo not shown) [Example 31, 4-(7-((Tetrahydrofuran-3-yl)methyl)-2,7-diazaspiro[4.4]nonan-2-yl)-6-(2,2,2-trifluoroethyl)thieno[2,3-d]pyrimidine], for which the IC50 is 100 to 1000 nM.

Take `O=C(C1CCCNC1)N1CC2(C1)CN(c1ncnc3sc(CC(F)(F)F)cc13)C2` (stereo not shown) [Example 78, piperidin-3-yl(6-(6-(2,2,2-trifluoroethyl)thieno[2,3-d]pyrimidin-4-yl)-2,6-diazaspiro[3.3]heptan-2-yl)methanone]: the IC50 was 100 to 1000 nM.

Compound `FC(F)(F)Cc1cc2c(N3CCC4(CC3)CN(CC3CCC(F)(F)CC3)C4)ncnc2s1` [Example 12, 4-(2((4,4-difluorocyclohexyl)methyl)-2,7-diazaspiro[3.5]nonan-7-yl)-6-(2,2,2-trifluoroethyl)thieno[2,3-d]pyrimidine] displayed an IC50 of 100 to 1000 nM.

The values above are taken from patent US20190010167A1, “INHIBITORS OF THE MENIN-MLL INTERACTION” (Vitae Pharmaceuticals, Inc., priority 2015, published 2019).
